Test results reported in patent publication US12629385B2, “Stable AST-3424 injection preparation and preparation method” (OBI PHARMA, INC., priority 2019, dated 2026).

Assays:
[1] = Study on solution stability of AST-3424 in different solutions (HPLC content, pH); assay type: physicochemical
Experimental: Approximate 107.32 mg of AST-3424 (50% v/v, ethanol) was measured, and put in 50-ml volumetric flasks, to which solvents (organic solvents, buffer solutions, or purified water) were added to the scale, respectively. At each predetermined time point, 1 ml of the sample was measured for HPLC analysis. If API was stable in different pH solutions, the sampling time would be extended, e.g., 5 days or longer.
(§1) For samples used for the assay in the solubility study, about 1 ml of the culture medium was measured, then the resultant was centrifuged at 10000 rpm for 10 min, and the clear solution in […] was collected for HPLC analysis. For the study on solution stability, the samples could be directly injected into HPLC for analysis.
(§2) Content determination by HPLC method: AST-3424 was used as an external standard for quantitation.
UVDAD detector: wavelength: 230 nm. C18 column, column temperature: 25° C.
• A: 10 mmol/L ammonium acetate solution obtained by dissolving ammonium acetate in a mixed solvent of 95% water and 5% acetonitrile by volume; • B: 8 mmol/L ammonium acetate solution obtained by dissolving ammonium acetate in a mixed solvent of 95% acetonitrile and 5% water by volume;
Gradient elution was performed.

[2] = Solubility test of AST-3424 at 25° C. (shaking incubator, HPLC content, pH); assay type: physicochemical; settings: for Content (solubility study): 25° C.
Experimental: An appropriate amount of AST-3424 (hereinafter referred to as the active pharmaceutical ingredient or API) was measured, and put in a suitable container containing 40 ml of the above solution (20 ml for an organic solvent) until there were excessive AST-3424 oil droplets in the solution.
The samples were placed in a constant-temperature shaking incubator, the temperature of which was maintained at 25° C. The samples were shaken at an appropriate speed (100 rpm). Sampling was carried out at each predetermined time point as listed in Table 1, and the pH was examined. Then, the samples were centrifuged (10000 rpm, 10 min), and diluted to a concentration suitable for HPLC analysis (note: accurately recording the dilution ratio after the test) by adding the corresponding solution or organic solvent (dissolving API for solubility study), so as to obtain solubility data.
as §1, §2
According to the results of solution stability, AST-3424 was very unstable in the pH4.5 acetate buffer. Therefore, the solubility was tested in the pH6.8 phosphate buffer, the pH7.4 phosphate buffer, the pH10.0 alkaline borate buffer, and the purified water. An appropriate amount of AST-3424 was weighed and put into 40 mL of medium (ethanol/propylene glycol: 8 mL, 50:50V/V) until there were excessive floccules in the solution. If the solubility of API in the aqueous solution was greater than 2% (20 mg/ml), there was no need to add more API.

SMILES: C[C@H](OP(=O)(N1CC1)N1CC1)c1ccc([N+](=O)[O-])c(Oc2cccc(C(=O)N(C)C)c2)c1 [AST-3424, (S)-1-(3-(3-N,N-dimethylaminocarbonyl)phenoxyl-4-nitrophenyl)-1-ethyl-N,N′-bis(ethylene)phosphoramidate]
- pH value ([1]; AST-3424 solution in pH 4.5 acetate buffer, 0 h): 4.497
- pH value ([1]; AST-3424 solution in pH 4.5 acetate buffer, 72 h): 4.477
- pH value ([1]; AST-3424 solution in pH 6.8 phosphate buffer, 0 h): 6.815
- pH value ([1]; AST-3424 solution in pH 6.8 phosphate buffer, 72 h): 6.855
- pH value ([1]; AST-3424 solution in pH 7.4 phosphate buffer, 0 h): 7.481
- pH value ([1]; AST-3424 solution in pH 7.4 phosphate buffer, 72 h): 7.534
- pH value ([1]; AST-3424 solution in pH 10.0 alkaline borate buffer, 0 h): 9.984
- pH value ([1]; AST-3424 solution in pH 10.0 alkaline borate buffer, 72 h): 10.023
- pH value ([1]; AST-3424 solution in purified water, 0 h): 5.152
- pH value ([1]; AST-3424 solution in purified water, 72 h): 6.435
- Content ([1]; Ethanol/propylene glycol (50:50, v/v), 0 h, room temperature): 1.295 mg/mL
- Content ([1]; Ethanol/propylene glycol (50:50, v/v), 1 h, room temperature): 1.287 mg/mL
- Content ([1]; Ethanol/propylene glycol (50:50, v/v), 4 h, room temperature): 1.287 mg/mL
- Content ([1]; Ethanol/propylene glycol (50:50, v/v), 8 h, room temperature): 1.287 mg/mL
- Content ([1]; Ethanol/propylene glycol (50:50, v/v), 24 h, room temperature): 1.302 mg/mL
- Content ([1]; Ethanol/propylene glycol (50:50, v/v), 48 h, room temperature): 1.284 mg/mL
- Content ([1]; Ethanol/propylene glycol (50:50, v/v), 72 h, room temperature): 1.275 mg/mL
- Content ([1]; Ethanol, 0 h, room temperature): 1.238 mg/mL
- Content ([1]; Ethanol, 1 h, room temperature): 1.280 mg/mL
- Content ([1]; Ethanol, 4 h, room temperature): 1.246 mg/mL
- Content ([1]; Ethanol, 8 h, room temperature): 1.240 mg/mL
- Content ([1]; Ethanol, 24 h, room temperature): 1.240 mg/mL
- Content ([1]; Ethanol, 48 h, room temperature): 1.278 mg/mL
- Content ([1]; Ethanol, 72 h, room temperature): 1.236 mg/mL
- Content ([1]; Purified water, 0 h, room temperature): 1.186 mg/mL
- Content ([1]; Purified water, 1 h, room temperature): 1.126 mg/mL
- Content ([1]; Purified water, 4 h, room temperature): 1.056 mg/mL
- Content ([1]; Purified water, 8 h, room temperature): 1.005 mg/mL
- Content ([1]; Purified water, 24 h, room temperature): 0.918 mg/mL
- Content ([1]; Purified water, 48 h, room temperature): 0.860 mg/mL
- Content ([1]; Purified water, 72 h, room temperature): 0.810 mg/mL
- Solution stability ([1]; pH4.5 acetate buffer): very unstable
- Content ([1]; pH 4.5 acetate buffer, 0 h, room temperature): 0.673 mg/mL
- Content ([1]; pH 4.5 acetate buffer, 1 h, room temperature): 0.413 mg/mL
- Content ([1]; pH 4.5 acetate buffer, 4 h, room temperature): 0.218 mg/mL
- Content ([1]; pH 4.5 acetate buffer, 8 h, room temperature): 0.093 mg/mL
- Content ([1]; pH 4.5 acetate buffer, 24 h, room temperature): 0.013 mg/mL
- Content ([1]; pH 6.8 phosphate buffer, 0 h, room temperature): 1.202 mg/mL
- Content ([1]; pH 6.8 phosphate buffer, 1 h, room temperature): 1.200 mg/mL
- Content ([1]; pH 6.8 phosphate buffer, 4 h, room temperature): 1.193 mg/mL
- Content ([1]; pH 6.8 phosphate buffer, 8 h, room temperature): 1.185 mg/mL
- Content ([1]; pH 6.8 phosphate buffer, 24 h, room temperature): 1.168 mg/mL
- Content ([1]; pH 6.8 phosphate buffer, 48 h, room temperature): 1.145 mg/mL
- Content ([1]; pH 6.8 phosphate buffer, 72 h, room temperature): 1.102 mg/mL
- Solution stability ([1]; pH7.4 phosphate buffer): stable
- Content ([1]; pH 7.4 phosphate buffer, 0 h, room temperature): 1.267 mg/mL
- Content ([1]; pH 7.4 phosphate buffer, 1 h, room temperature): 1.266 mg/mL
- Content ([1]; pH 7.4 phosphate buffer, 4 h, room temperature): 1.266 mg/mL
- Content ([1]; pH 7.4 phosphate buffer, 8 h, room temperature): 1.262 mg/mL
- Content ([1]; pH 7.4 phosphate buffer, 24 h, room temperature): 1.262 mg/mL
- Content ([1]; pH 7.4 phosphate buffer, 48 h, room temperature): 1.249 mg/mL
- Content ([1]; pH 7.4 phosphate buffer, 72 h, room temperature): 1.228 mg/mL
- Content ([1]; pH 10.0 (alkaline borate buffer), 0 h, room temperature): 1.265 mg/mL
- Content ([1]; pH 10.0 (alkaline borate buffer), 1 h, room temperature): 1.265 mg/mL
- Content ([1]; pH 10.0 (alkaline borate buffer), 4 h, room temperature): 1.261 mg/mL
- Content ([1]; pH 10.0 (alkaline borate buffer), 8 h, room temperature): 1.258 mg/mL
- Content ([1]; pH 10.0 (alkaline borate buffer), 24 h, room temperature): 1.261 mg/mL
- Content ([1]; pH 10.0 (alkaline borate buffer), 48 h, room temperature): 1.257 mg/mL
- Content ([1]; pH 10.0 (alkaline borate buffer), 72 h, room temperature): 1.242 mg/mL
- Time for which API was stable in solution ([1]; room temperature, ethanol, ethanol/propylene glycol=1/1, pH7.4 and pH10.0 buffer solutions): at least 72 h
- Solution stability ([1]; room temperature, pH4.5 solution and water): unstable
- Time for which API was stable in solution ([1]; room temperature, pH6.8 solution): at least 24 h
- Solution stability ([1]; water and pH6.8 phosphate buffer): relatively poor stability
- Content (solubility study) ([2]; Ethanol/propylene glycol (50:50, v/v), 1 h): 271.28 mg/mL
- Content (solubility study) ([2]; Ethanol/propylene glycol (50:50, v/v), 8 h): 301.33 mg/mL
- Content (solubility study) ([2]; Ethanol/propylene glycol (50:50, v/v), 24 h): 298.85 mg/mL
- Solubility, description of terms ([2]; alcohol solvents such as ethanol/propylene glycol (50:50, v/v)): Freely soluble
- pH value (solubility study) ([2]; excess AST-3424 in pH 6.8 phosphate buffer, 1 h): 6.856
- pH value (solubility study) ([2]; excess AST-3424 in pH 6.8 phosphate buffer, 4 h): 6.837
- pH value (solubility study) ([2]; excess AST-3424 in pH 6.8 phosphate buffer, 8 h): 6.855
- pH value (solubility study) ([2]; excess AST-3424 in pH 6.8 phosphate buffer, 24 h): 6.841
- pH value (solubility study) ([2]; excess AST-3424 in pH 6.8 phosphate buffer, 48 h): 6.860
- pH value (solubility study) ([2]; excess AST-3424 in pH 7.4 phosphate buffer, 1 h): 7.477
- pH value (solubility study) ([2]; excess AST-3424 in pH 7.4 phosphate buffer, 4 h): 7.462
- pH value (solubility study) ([2]; excess AST-3424 in pH 7.4 phosphate buffer, 8 h): 7.475
- pH value (solubility study) ([2]; excess AST-3424 in pH 7.4 phosphate buffer, 24 h): 7.455
- pH value (solubility study) ([2]; excess AST-3424 in pH 7.4 phosphate buffer, 48 h): 7.482
- pH value (solubility study) ([2]; excess AST-3424 in pH 10.0 alkaline borate buffer, 1 h): 9.998
- pH value (solubility study) ([2]; excess AST-3424 in pH 10.0 alkaline borate buffer, 4 h): 9.980
- pH value (solubility study) ([2]; excess AST-3424 in pH 10.0 alkaline borate buffer, 8 h): 9.971
- pH value (solubility study) ([2]; excess AST-3424 in pH 10.0 alkaline borate buffer, 24 h): 9.932
- pH value (solubility study) ([2]; excess AST-3424 in pH 10.0 alkaline borate buffer, 48 h): 9.952
- pH value (solubility study) ([2]; excess AST-3424 in purified water, 1 h): 5.004
- pH value (solubility study) ([2]; excess AST-3424 in purified water, 4 h): 5.651
- pH value (solubility study) ([2]; excess AST-3424 in purified water, 8 h): 5.971
- pH value (solubility study) ([2]; excess AST-3424 in purified water, 24 h): 6.378
- pH value (solubility study) ([2]; excess AST-3424 in purified water, 48 h): 6.512
- Solubility (initial investigation, words) ([2]; methanol, propanol, butanol, ethylene glycol, propylene glycol, glycerol, 1,3-butanediol, 1,2-butanediol): good solubility
- Content (solubility study) ([2]; pH 6.8 (phosphate buffer), 4 h): 22.92 mg/mL
- Content (solubility study) ([2]; pH 6.8 (phosphate buffer), 8 h): 23.03 mg/mL
- pH of the solutions of API at different time points ([2]; pH6.8, pH7.4 and pH10.0 media): remained unchanged
- Content (solubility study) ([2]; pH 7.4 (phosphate buffer), 1 h): 23.65 mg/mL
- Content (solubility study) ([2]; pH 7.4 (phosphate buffer), 4 h): 23.47 mg/mL
- Content (solubility study) ([2]; pH 7.4 (phosphate buffer), 8 h): 23.56 mg/mL
- Content (solubility study) ([2]; pH 7.4 (phosphate buffer), 24 h): 23.65 mg/mL
- Content (solubility study) ([2]; pH 10.0 (alkaline borate buffer), 1 h): 23.50 mg/mL
- Content (solubility study) ([2]; pH 10.0 (alkaline borate buffer), 4 h): 23.56 mg/mL
- Content (solubility study) ([2]; pH 10.0 (alkaline borate buffer), 8 h): 23.48 mg/mL
- Content (solubility study) ([2]; pH 10.0 (alkaline borate buffer), 24 h): 23.49 mg/mL
- Solubility, description of terms ([2]; water, pH6.8 phosphate buffer, pH7.4 phosphate buffer, pH10.0 alkaline borate buffer): sparingly soluble
